Measured values reported in PMC8419391 (Journal of Pharmaceutical Investigation, 2021).
In brackets after ≈: the same amount, converted by molar mass. Like-named read-outs stand apart in the source and are kept apart here.

Legend:
BetaCoV E-gene = assay type: cell-based, SARS-CoV2
[1] = system: Peripheral blood mononuclear cells (PBMC); experiment: Peripheral blood mononuclear cells toxicity; assay type: cell-based; conditions: Homo sapiens, 24 h, read-out: PBMC IC50 (µg/ml)
white blood cells (WBC) = experiment: Elimination of HCQ toxicity: HCQ induced WBC cytotoxicity; assay type: cell-based; conditions: HCQ 200 µg/ml
ACE2 protein = ACE2 protein (Homo sapiens, UniProt Q9BYF1); experiment: ACE2 binding
[2] = system: klebsila pneumonia ATCC700603; experiment: Turbidity assay; assay type: cell-based
[3] = system: klebsila pneumonia ATCC700603; experiment: Agar well diffusion assay; assay type: cell-based
BetaCoV RdRp gene = assay type: cell-based, SARS-CoV2
SARS-CoV2 = experiment: microbe, parasite or virus in culture; assay type: cell-based; conditions: for EC50: Severe acute respiratory syndrome coronavirus 2, Vero C1008
human red blood cells = experiment: Red blood cells toxicity; assay type: cell-based; conditions: Erythrocyte, 1 h, read-out: RBC IC50 (µg/ml)
[4] = system: Streptococcus pyogenes EMCC1772; experiment: Agar well diffusion assay; assay type: cell-based
[5] = system: Staphylococcus aureus ATCC25923; experiment: Agar well diffusion assay; assay type: cell-based
[6] = system: Streptococcus pyogenes EMCC1772; experiment: Turbidity assay; assay type: cell-based
SARS-CoV2 ORF gene = assay type: cell-based
red blood cells = experiment: Elimination of HCQ toxicity: HCQ induced RBC hemolysis; conditions: HCQ 27.5 µg/ml
Candida albicans EMCC105 [7] = experiment: Turbidity assay; assay type: cell-based
[8] = target: papain-like proteinase (PLpro) (Severe acute respiratory syndrome coronavirus 2, UniProt P0DTD1); experiment: Papain-like proteinase; assay type: biochemical, SARS-CoV2; conditions: read-out: PLpro (Inhibition %)
[9] = target: SARS-CoV2 RBD / ACE2 protein complex (Severe acute respiratory syndrome coronavirus 2, UniProt P0DTC2); experiment: Spike protein RBD-ACE2 complex formation ELISA; assay type: binding
Candida albicans EMCC105 [10] = experiment: Agar well diffusion assay; assay type: cell-based
[11] = In vivo HCQ toxicity elimination: CBC profile and blood chemistry; conditions: mice, oral
[12] = system: Staphylococcus aureus ATCC25923; experiment: Turbidity assay; assay type: cell-based
Antioxidant activity = conditions: DPPH, 30 min in the dark
[13] = ref Zou et al. [2020], cited from earlier work

Chain of ACE2 protein (Q9BYF1 18-805): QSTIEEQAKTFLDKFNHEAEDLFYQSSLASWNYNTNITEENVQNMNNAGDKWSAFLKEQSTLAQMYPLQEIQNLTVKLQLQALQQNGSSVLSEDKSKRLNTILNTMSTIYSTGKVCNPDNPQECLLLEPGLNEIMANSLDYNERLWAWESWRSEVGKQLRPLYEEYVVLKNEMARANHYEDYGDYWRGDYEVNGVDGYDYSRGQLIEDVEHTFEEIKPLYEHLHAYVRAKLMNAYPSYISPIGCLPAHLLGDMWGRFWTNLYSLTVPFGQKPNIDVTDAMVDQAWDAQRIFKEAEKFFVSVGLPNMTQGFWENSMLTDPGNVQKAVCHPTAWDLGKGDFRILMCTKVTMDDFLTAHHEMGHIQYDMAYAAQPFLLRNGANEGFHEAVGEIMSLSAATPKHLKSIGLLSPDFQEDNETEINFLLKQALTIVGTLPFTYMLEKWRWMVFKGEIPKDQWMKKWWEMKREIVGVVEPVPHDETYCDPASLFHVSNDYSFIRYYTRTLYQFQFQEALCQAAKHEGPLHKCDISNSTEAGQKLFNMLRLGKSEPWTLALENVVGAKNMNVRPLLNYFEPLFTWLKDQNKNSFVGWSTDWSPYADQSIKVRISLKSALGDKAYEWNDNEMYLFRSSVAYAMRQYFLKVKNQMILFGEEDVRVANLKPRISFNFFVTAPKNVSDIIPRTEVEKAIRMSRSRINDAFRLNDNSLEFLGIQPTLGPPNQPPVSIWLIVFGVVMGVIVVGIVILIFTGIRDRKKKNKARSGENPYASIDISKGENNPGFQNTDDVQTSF

SMILES: COc1ccc2cc3[n+](cc2c1OC)CCc1cc2c(cc1-3)OCO2 [BER, Berberine chloride hydrate]
- E-gene down regulation (%) (BetaCoV E-gene; 2.5 µg/ml): 89.77 ± 3.5%
- E-gene expression (BetaCoV E-gene; 2.5 µg/ml): 0.102 ± 0.0003
- E-gene down regulation (%) (BetaCoV E-gene; 5 µg/ml): 99.30 ± 1.8%
- E-gene expression (BetaCoV E-gene; 5 µg/ml): 0.007 ± 0.0005
- E-gene down regulation (%) (BetaCoV E-gene; 10 µg/ml): 99.70 ± 4.5%
- E-gene expression (BetaCoV E-gene; 10 µg/ml): 0.003 ± 0.0001
- E-gene down regulation (%) (BetaCoV E-gene; 20 µg/ml): 99.98 ± 3.9%
- E-gene expression (BetaCoV E-gene; 20 µg/ml): 0.0002 ± 0.00001
- IC50 [1]: 22.2 ± 0.9 µg/mL
- prevention of HCQ cytotoxic effect towards WBC (white blood cells (WBC)): ~6.7 folds
- ACE2 (Binding %) (ACE2 protein; 62.5 µg/ml): 13.10 ± 0.07%
- ACE2 (Binding %) (ACE2 protein; 126 µg/ml): 13.10 ± 0.90%
- ACE2 (Binding %) (ACE2 protein; 252 µg/ml): 13.90 ± 1.10%
- ACE2 (Binding %) (ACE2 protein; 504 µg/ml): 15.60 ± 1.60%
- ACE2 (Binding %) (ACE2 protein; 1008 µg/ml): 15.60 ± 1.10%
- MIC [2]: 463 µg/mL
- MIC [3]: 1850 µg/mL
- RdRp down regulation (%) (BetaCoV RdRp gene; 2.5 µg/ml): 76.67 ± 2.9%
- RdRp expression (BetaCoV RdRp gene; 2.5 µg/ml): 0.233 ± 0.001
- RdRp down regulation (%) (BetaCoV RdRp gene; 5 µg/ml): 79.26 ± 3.5%
- RdRp expression (BetaCoV RdRp gene; 5 µg/ml): 0.207 ± 0.002
- RdRp down regulation (%) (BetaCoV RdRp gene; 10 µg/ml): 94.95 ± 6.9%
- RdRp expression (BetaCoV RdRp gene; 10 µg/ml): 0.050 ± 0.0003
- RdRp down regulation (%) (BetaCoV RdRp gene; 20 µg/ml): 99.89 ± 3.8%
- RdRp expression (BetaCoV RdRp gene; 20 µg/ml): 0.001 ± 0.00009
- Vero E6 reduction (%) (SARS-CoV2): 80.00 ± 1.7%
- EC50 (SARS-CoV2): 16.7 ± 0.01 µg/mL
- EC50/IC50% (SARS-CoV2; antiviral EC50 relative to Vero E6 IC50): 32.9 ± 0.4%
- IC50 (human red blood cells): 1349 ± 10.3 µg/mL
- MIC [4]: 463 µg/mL
- MIC [5]: 926 µg/mL
- MIC [6]: 463 µg/mL
- ORF gene down regulation (%) (SARS-CoV2 ORF gene; 2.5 µg/ml): 11.73 ± 0.1%
- ORF gene expression (SARS-CoV2 ORF gene; 2.5 µg/ml): 0.88 ± 0.001
- ORF gene down regulation (%) (SARS-CoV2 ORF gene; 5 µg/ml): 21.54 ± 0.2%
- ORF gene expression (SARS-CoV2 ORF gene; 5 µg/ml): 0.79 ± 0.003
- ORF gene down regulation (%) (SARS-CoV2 ORF gene; 10 µg/ml): 60.22 ± 0.8%
- ORF gene expression (SARS-CoV2 ORF gene; 10 µg/ml): 0.39 ± 0.002
- ORF gene down regulation (%) (SARS-CoV2 ORF gene; 20 µg/ml): 86.69 ± 0.1%
- ORF gene expression (SARS-CoV2 ORF gene; 20 µg/ml): 0.13 ± 0.008
- decrease of the hemolytic activity induced by HCQ (red blood cells): 42.85%
- MIC (Candida albicans EMCC105 [7]): 463 µg/mL
- inhibition at 62.5 µg/mL [8]: 49.8 ± 0.19%
- inhibition at 126 µg/mL [8]: 65.89 ± 0.17%
- inhibition at 252 µg/mL [8]: 78.93 ± 0.36%
- inhibition at 504 µg/mL [8]: 84.8 ± 0.12%
- inhibition at 1008 µg/mL [8]: 93.26 ± 0.73%
- Spike protein- RBD- complex formation (Fold change) ([9]; 62.5 µg/ml): 03.88 ± 0.08 Fold change
- Spike protein- RBD- complex formation (Fold change) ([9]; 126 µg/ml): 08.00 ± 0.10 Fold change
- Spike protein- RBD- complex formation (Fold change) ([9]; 252 µg/ml): 08.50 ± 0.00 Fold change
- Spike protein- RBD- complex formation (Fold change) ([9]; 504 µg/ml): 16.13 ± 0.20 Fold change
- Spike protein- RBD- complex formation (Fold change) ([9]; 1008 µg/ml): 16.13 ± 0.03 Fold change
- MIC (Candida albicans EMCC105 [10]): 1850 µg/mL
- prevention of HCQ adverse effect on co-administration with HCQ ([11]; blood chemistry): moderately prevented
- effect on normal CBC parameters ([11]; p < 0.05): did not affect normal CBC parameters
- MIC [12]: 463 µg/mL

SMILES: CCN(CCO)CCCC(C)Nc1ccnc2cc(Cl)ccc12 (stereo not drawn) [HCQ, hydroxychloroquine]
- IC50 [1]: 3.2 ± 0.3 µg/mL (≈ 9.53 µM)
- Antioxidants IC50 (Antioxidant activity): 362.7 ± 6.7 µg/mL
- ACE2 (Binding %) (ACE2 protein; 12.5 µg/ml): 09.02 ± 0.50%
- ACE2 (Binding %) (ACE2 protein; 200 µg/ml): 15.60 ± 1.40%
- EC50/IC50% (SARS-CoV2): 27.5 ± 0.9%
- Vero E6 reduction (%) (SARS-CoV2): 76.00 ± 1.8%
- EC50 (SARS-CoV2): 0.39 ± 0.009 µg/mL (≈ 1.16 µM)
- IC50 (human red blood cells): 52 ± 0.9 µg/mL (≈ 155 µM)
- oral dose reaching the blood ([13]; oral): about 50%
- accumulation in brain and spinal cord tissue, times higher than plasma level [13]: 30 times
- accumulation in the liver and lung, times higher than plasma concentration [13]: 700 times
- inhibition at 12.5 µg/mL [8]: 8.1 ± 0.74%
- inhibition at 25 µg/mL [8]: 11.2 ± 0.39%
- inhibition at 50 µg/mL [8]: 22.5 ± 0.15%
- inhibition at 100 µg/mL [8]: 30 ± 0.23%
- inhibition at 200 µg/mL [8]: 37 ± 0.42%
